Legend:
Assay type in all cases: in vivo
[1] = Feed consumption and body mass growth of C57B1 mice on high calorie diet, 5 months
Description: (§1) The test substance was in the form of an aqueous solution of ultra-low doses of polyclonal rabbit antibodies to human cannabinoid receptor type 1 (ULD anti-CB1), purified on antigen, obtained by hyper-dilution of the initial matrix solution 100^12, 100^30, 100^200 times (mixture of centesimal homeopathic dilutions C12, C30, and C200).
40 male mice of the C57B1 line were used in the study (weight at the beginning of the study: 13.5-15.5 g). 10 mice received the regular standard feed (standard diet); 30 mice received the standard feed with high calorie additives (high calories diet) and, simultaneously, either distilled water (control, 0.4 ml/mouse) or Subutramine (Meridia 10 mg capsules, Abbott GmbH, Germany) (10 mg/Kg) or ULD anti-CB1 (0.4 ml/mouse). All preparations were given intragastrically once a day in the course of 5 months. The mice consumption of feed was measured before test substances were introduced. The mice consumption of feed was also measured each week thereafter. The consumption of feed was evaluated as an average quantity of food (in grams), consumed by a mouse after 1 and 2 months of the study, and as an average quantity of feed per 10 g of mouse body mass.

[2] = Body mass growth of C57B1 mice on high (45%) fat diet, 2 months; conditions: for Body mass (grams): high fat diet
Description: as §1
33 male mice of the C57B1 line were used in the study (weight at the beginning of the study: 13.09±0.738 g). The mice received the modified diet with high (45%) fat content and simultaneously either distilled water (control, 0.2 ml/mouse) or Subutramine (10 mg/Kg) or ULD anti-CB1 (0.2 ml/mouse). All ULD anti-CB1 preparations were given intragastrically once a day in the course of 2 months. The mice weight was measured on Philips Cucina HR 239016 (Hungary) electronic scales until beginning to introduce the preparations (initially) and also each week after beginning to introduce them. The body mass growth of the mice was evaluated as a percentage of the initial weight.

[3] = Open field test, motor activity of mice given nicotine; conditions: nicotine 0.3 mg/kg s.c. over 4 days
Description: The effects of I) the combination of ultra-low doses of polyclonal rabbit antibodies to brain-specific protein S-100 (ULD anti-S100) and ultra-low doses of antibodies to cannabinoid receptor type 1 (ULD anti-CB1), each obtained by hyper-dilution of the initial matrix solution 100^12, 100^30, 100^200 times (mixture of centesimal homeopathic dilutions C12, C30, C200) (ULD anti-S100+ULD anti-CB1), ii) ULD anti-CB1 alone, and iii) ULD anti-S100 alone, on motor activity of mice were studied to evaluate their anti-nicotine properties.
40 white outbred male mice (22-25 g, 1.5 mo.) were used. 10 mice were intact. The rest of the mice were administered nicotine subcutaneously over 4 days at the dose of 0.3 mg/kg, Nicotine administration was preceded (1 hour prior) by intragastrical administration of either distilled water (control, 0.4 ml/mouse), or ULD anti-S100 (0.4 ml/mouse), or ULD anti-CB1 (0.4 ml/mouse), or ULD anti-S100+ULD anti-CB1 (0.4 ml/mouse). 30 minutes after the last administration of nicotine, an “open field” test was conducted. The animals were placed in the center of a TruScan photo-sensory installation (Coulbourn, USA), where the vertical and horizontal locomotor activity of the animals was automatically recorded in the course of two (2) minutes. The “open field” model makes it possible to evaluate the effect of the compounds on the locomotor activity of the animals (Gershenfield H. K., Neumann P. E., Mathis C., Crawley J. N., Li X., Paul S. M. Mapping quntative Trait Loci for Open-Field Behavior in Mice. Behavioral Genetics.—1997.—Vol. 27.—No 3.—p. 201-209, which is incorporated herein by reference in its entirety and for the purpose stated). The installation parameters: size 270×270×360 mm, divided into 64 squares, 2.5×2.5, with 25 mm openings situated in the platform floor, illumination of a 150 watt lamp.

SMILES: CC(C)CC(N(C)C)C1(c2ccc(Cl)cc2)CCC1 (centres unmarked) [Subutramine]
- Consumption of feed (g per 10 g of body mass) per day ([1]; average over 5 months, M±m): 1.28 ± 0.05 g per 10 g of body mass per da
- Consumption of feed (g/mouse) per day ([1]; average over 5 months, M±m): 2.75 ± 1.36 g/mouse per day
- decrease of consumption of feed in reference to the control ([1]; intragastrically once a day, in a week): 19.3%
- lowered body mass in comparison with the control group ([1]; last twentieth week): 51.5%
- Body mass (grams) ([2]; week 0 (initial)): 13.82 grams
- Δ to initial (body mass growth, percentage of initial weight) ([2]; week 1): −2.6%
- Body mass (grams) ([2]; week 1): 13.45 grams
- Δ to initial (body mass growth, percentage of initial weight) ([2]; week 2): 21.1%
- Body mass (grams) ([2]; week 2): 16.73 grams
- Δ to initial (body mass growth, percentage of initial weight) ([2]; week 3): 43.4%
- Body mass (grams) ([2]; week 3): 19.82 grams
- Δ to initial (body mass growth, percentage of initial weight) ([2]; week 4): 46.1%
- Body mass (grams) ([2]; week 4): 20.18 grams
- Δ to initial (body mass growth, percentage of initial weight) ([2]; week 5): 51.3%
- Body mass (grams) ([2]; week 5): 20.91 grams
- Δ to initial (body mass growth, percentage of initial weight) ([2]; week 6): 61.8%
- Body mass (grams) ([2]; week 6): 22.36 grams
- Δ to initial (body mass growth, percentage of initial weight) ([2]; week 7): 71.1%
- Body mass (grams) ([2]; week 7): 23.64 grams
- Δ to initial (body mass growth, percentage of initial weight) ([2]; week 8): 65.8%
- Body mass (grams) ([2]; week 8): 22.91 grams

SMILES: CN1CCCC1c1cccnc1 (centres unmarked) [nicotine]
- decrease of immobility time in comparison with the intact animals [3]: 13.5%
- increase of activity time in comparison with the intact animals [3]: 8.2%
- increase of distance traveled in comparison with the intact animals [3]: 5.1%
- increase of quantity of openings investigated in comparison with the intact animals [3]: 78.2%
- increase of study reaction time in comparison with the intact animals [3]: 76.9%

Reference: patent US8865163B2, “Pharmaceutical compositions and methods of treatment” (priority 2010, dated 2014)
